According to ChEMBL document CHEMBL1150027, “Apigenin-7-O--D-glucopyranoside, an anti-HIV principle from Kummerowia striata” (Bioorg Med Chem Lett, 1994):
Converted amounts (≈) assume the structure as drawn.

Legend:
H9 [1] = test: Inhibitory activity against HIV-1 IIIB replication in H9 cell line; format: functional, cell-based; conditions: Homo sapiens
H9 [2] = test: Inhibitory activity against H9 cells uninfected with HIV-1; format: functional, cell-based; conditions: Homo sapiens
[3] = Ratio of IC50 to EC50 was expressed as therapeutic index; conditions: read-out: TI

EC50 (H9 [1]) [µg/mL]	SMILES	IC50 (H9 [2]) [µg/mL]	selectivity ratio [3]
1.8 (≈ 4.16 µM)	O=c1cc(-c2ccc(O)cc2)oc2cc(O[C@@H]3O[C@H](CO)[C@@H](O)[C@H](O)[C@H]3O)cc(O)c12 [APIGETRIN]	> 100	> 55.6
80 (≈ 178 µM)	O=c1c(O[C@@H]2O[C@H](CO)[C@@H](O)[C@H](O)[C@H]2O)c(-c2ccc(O)cc2)oc2cc(O)cc(O)c12 [ASTRAGALIN]	< 100	< 1.25
9 (≈ 33.3 µM)	O=c1cc(-c2ccc(O)cc2)oc2cc(O)cc(O)c12 [APIGENIN]	35 (≈ 130 µM)	4

SMILES	EC50 (H9 [1]) [µg/mL]	IC50 (H9 [2]) [µg/mL]	selectivity ratio [3]
O=c1c(O)c(-c2ccc(O)c(O)c2)oc2cc(O)cc(O)c12 [QUERCETIN]	1.6 (≈ 5.29 µM)	< 4	< 2.5
